Literature values in PubChem BioAssay AID1259410 (Chemical Carcinogenesis Research Information System (CCRIS), 2018).

Tested on: rodent tumor promotion studies, tumor incidence
Assay: CCRIS tumor promotion studies

In the case of `CCO`, the outcome (Carcinogen: 1,2-DIMETHYLHYDRAZINE [540-73-8], Doses [Carcinogen]: 21 MG/KG WEEKLY FOR 18 WKS, Doses [Promoter]: 1.23 G/KG ADDED TO DRINKING WATER DAILY FOR 25-27 WKS, Route [Carcinogen]: SUBCUTANEOUS, Route [Promoter]: ORAL (DRINKING WATER), Species: RAT, Strain/Sex: SPRAGUE-DAWLEY/MALE, FEMALE) is listed as “negative”, the outcome (Carcinogen: 1,2-DIMETHYLHYDRAZINE, 540-73-8, Doses [Carcinogen]: 30 MG/KG BW 1/WK FOR 4 WK, Doses [Promoter]: 0, 6.6% OF LIQUID DIET BEGINNING 4 WK PRIOR TO CARCINOGEN TREATMENT LIQUID DIETS SUSPENDED FOR 3 WK DURING CARCINOGEN TR, Route [Carcinogen]: SUBCUTANEOUS, Route [Promoter]: ORAL, Species: RAT, Strain/Sex: SPRAGUE-DAWLEY/MALE) is listed as “rectum: tumors” and the outcome (Carcinogen: 4-(METHYLNITROSAMINO)-1-(3-PYRIDYL)-1-BUTANONE, 64091-91-4, Doses [Carcinogen]: 0, 50 MG/KG IN DISTILLED WATER ADMINISTERED INTRATRACHEALLY TO MOTHERS ON DAY 15 OF GESTATION, Doses [Promoter]: 10% IN DRINKING WATER ADMINISTERED IN DRINKING WATER TO MOTHERS ON DAYS 5 THROUGH 16 OF PREGNANCY (STUDY DURATION: 48 WK, Route [Carcinogen]: TRANSPLACENTAL, Route [Promoter]: TRANSPLACENTAL, Species: HAMSTER, Strain/Sex: SYRIAN/FEMALE) is listed as “nasal cavity: tumor; pancreas: tumor; adrenal gland: tumor”. For the same compound, the outcome (Carcinogen: 4-(METHYLNITROSAMINO)-1-(3-PYRIDYL)-1-BUTANONE, 64091-91-4, Doses [Carcinogen]: 0, 50 MG/KG IN DISTILLED WATER ADMINISTERED INTRATRACHEALLY TO MOTHERS ON DAY 15 OF GESTATION, Doses [Promoter]: 10% IN DRINKING WATER ADMINISTERED IN DRINKING WATER TO MOTHERS ON DAYS 5 THROUGH 16 OF PREGNANCY (STUDY DURATION: 48 WK, Route [Carcinogen]: TRANSPLACENTAL, Route [Promoter]: TRANSPLACENTAL, Species: HAMSTER, Strain/Sex: SYRIAN/MALE) was “pancreas: tumor; adrenal gland: tumor”, the outcome (Carcinogen: 4-(METHYLNITROSAMINO)-1-(3-PYRIDYL)-1-BUTANONE, 64091-91-4, Doses [Carcinogen]: 20 MMOL/KG (TOTAL DOSE) 3/WK FOR 4 WK, Doses [Promoter]: 0, 7% (V/V) IN LIQUID DIET FOR 50 WK BEGINNING 1 WK POST CARCINOGEN TREATMENT (STUDY DURATION: 55 WK), Route [Carcinogen]: GAVAGE, Route [Promoter]: ORAL, Species: RAT, Strain/Sex: F344/MALE) was “esophagus: tumor; oral cavity: tumor; lung: tumor” and the outcome (Carcinogen: 7,12-DIMETHYLBENZ[A]ANTHRACENE, 57-97-6, Doses [Carcinogen]: 1% PAINTED ON RIGHT BUCCAL POUCH 1/2 D FOR 1 WK, Doses [Promoter]: 0, 5% IN LIQUID DIET BEGINNING 1 WK POST CARCINOGEN TREATMENT AND CONTINUING FOR 35 WK (STUDY DURATION: 35 WK), Route [Carcinogen]: MUCOUS MEMBRANE, Route [Promoter]: ORAL, Species: HAMSTER, Strain/Sex: SYRIAN/MALE) was “buccal pouch: epidermoid carcinoma”. The outcome (Carcinogen: 17ALPHA-ETHYNYLESTRADIOL, 57-63-6, NORETHINDRONE ACETATE, 51-98-9, Carcinogen: 17ALPHA-ETHYNYLESTRADIOL, 57-63-6, NORETHINDRONE ACETATE, 51-98-9, Doses [Carcinogen]: 0.075 MG EE AND 6 MG NA IN 0.5 ML OLIVE OIL 1/D FOR 12 MO, Doses [Promoter]: 0, 10% IN DRINKING WATER 5 D/WK FOR 12 MO (STUDY DURATION: 12 MO), Route [Carcinogen]: GAVAGE, GAVAGE, Route [Promoter]: ORAL, Species: RAT, Strain/Sex: WISTAR/FEMALE) was “liver: hepatocellular carcinoma”, the outcome (Carcinogen: DIETHYLNITROSAMINE, 55-18-5, Doses [Carcinogen]: 33, 50 PPM IN DRINKING WATER FOR 8 WK, Doses [Promoter]: 10% IN DRINKING WATER FOR 8 WK ADMINISTERED WITH CARCINOGEN (STUDY DURATION: 104 WK), Route [Carcinogen]: ORAL, Route [Promoter]: ORAL, Species: RAT, Strain/Sex: F344/MALE) was “esophagus: papilloma or carcinoma” and the outcome (Carcinogen: Diethylnitrosamine, 55-18-5, Doses [Carcinogen]: 40 mg/l for 4 consecutive d/wk for 180 days, study duration 180 d, Doses [Promoter]: 6%, 3 d /wk for 180 d, study duration 180 d, Route [Carcinogen]: Oral (drinking water), Route [Promoter]: Oral (drinking water), Species: Mouse, Strain/Sex: CF1/Female (16, 47/Group)) was “stomach: squamous cell carcinoma (33% vs 30%); adenocarcinoma (17% vs 15%); both”. The outcome (Carcinogen: METHYLAZOXYMETHANOL ACETATE, 592-62-1, Doses [Carcinogen]: 25 MG/KG IN SALINE 1/WK FOR 2 WK, Doses [Promoter]: 0.10% IN DRINKING WATER FOR 393 D BEGINNING 1 WK POST CARCINOGEN DOSE (STUDY DURATION: 414 D), Route [Carcinogen]: INTRAPERITONEAL, Route [Promoter]: ORAL, Species: RAT, Strain/Sex: ACI/MALE) was “large intestine: adenoma, adenocarcinoma”, the outcome (Carcinogen: N6-(METHYLNITROSO)ADENOSINE, 21928-82-5, Doses [Carcinogen]: 180 MG/KG 3/WK FOR 12 WK, Doses [Promoter]: 0, 15% 3/WK FOR 12 WK ADMINISTERED WITH CARCINOGEN (STUDY DURATION: 18 MO), Route [Carcinogen]: GAVAGE, Route [Promoter]: GAVAGE, Species: MOUSE, Strain/Sex: SWISS/FEMALE) was “thymus: lymphoma” and the outcome (Carcinogen: N'-NITROSONORNICOTINE, 16543-55-8, Doses [Carcinogen]: 40 MMOL/KG (TOTAL DOSE) 3/WK FOR 4 WK, Doses [Promoter]: 0, 7% (V/V) IN LIQUID DIET FOR 50 WK BEGINNING 1 WK POST CARCINOGEN TREATMENT (STUDY DURATION: 55 WK), Route [Carcinogen]: GAVAGE, Route [Promoter]: ORAL, Species: RAT, Strain/Sex: F344/MALE) was “esophagus: tumor; oral cavity: tumor; lung: tumor”.
